Source: patent US20250090705A1, “STERILIZATION METHOD AND STERILIZATION DEVICE” (OSAKA UNIVERSITY, priority 2021, published 2025)
Where two headings read alike, the source gives them in different places.

How the values were obtained:
[1] = cited from earlier work
[2] = system: bacterial spores (Geobacillus stearothermophilu); assay: first and second sterilization tests, large container (90 L), nebulizer method, BI in sterilization bag, CFU assay; assay type: cell-based; settings: 90 L container, 10^5 CFU spores in glassine paper bag
Procedure: (§1) The following description will discuss, with reference to FIGS. 2 to 5, results of sterilization tests each using the sterilization device 1 that generates peroxynitric acid gas by a nebulizer method. Here, the sterilization tests were carried out with use of the sterilization device 1 that includes (i) the peroxynitric acid gas generation section 10, which is as illustrated in FIG. 1 and which generates the peroxynitric acid gas by a nebulizer method and (ii) the sterilization treatment section 20 in which the sterilization container 21 having a capacity of 90 L is used. The peroxynitric acid solution was used in an amount of approximately 15 mL per minute in the peroxynitric acid gas generation section 10. The peroxynitric acid mist and the peroxynitric acid gas in the sterilization container 21 were configured to be recirculated into the second container 12 instead of being discharged outside through the air outlet 24.
FIG. 2 is a graph showing a result of a first sterilization test using a large container. FIG. 3 is a graph showing a result of a second sterilization test using a large container. […]

[3] = system: bacterial spores (Geobacillus stearothermophilu); assay: third and fourth sterilization tests, large container (90 L), BI in sterilization bag, on-off test (turbidity of culture solution); assay type: cell-based; settings: 90 L container, 10^6 CFU spores in glassine paper bag
Procedure: as §1
FIG. 4 is a table showing a result of a third sterilization test using a large container. FIG. 5 is a table showing a result of a fourth sterilization test using a large container. The BI is one in which 10^6 CFU bacterial spores (Geobacillus stearothermophilu) are supported on a stainless steel disk and the stainless steel disk is in the sterilization bag 23 made of glassine paper. […]

[4] = system: bacterial spores (Geobacillus stearothermophilu); assay: fifth sterilization test, small container (approximately 0.3 L), BI in sterilization bag, CFU assay, survival curves, D value; assay type: cell-based
Source text: Subsequently, the following description will discuss, with reference to FIGS. 6 and 7, a result of a sterilization test using the sterilization device 1 that generates peroxynitric acid gas by a nebulizer method. The capacity of the sterilization container 21 was as large as 90 L in the sterilization tests in FIGS. 2 to 5, whereas the capacity of the sterilization container 21 was as small as approximately 0.3 L in the sterilization test in FIGS. 6 and 7. The peroxide solution was used in an amount of approximately 3 mL per minute in the peroxynitric acid gas generation section 10. The peroxynitric acid gas in the sterilization container 21 is discharged outside through the air outlet 24 instead of being recirculated into the second container 12.
FIG. 6 is a graph showing a result of a fifth sterilization test using a small container. The BI is one in which 10^5 CFU bacterial spores (Geobacillus stearothermophilu) are supported on a stainless steel disk and the stainless steel disk is in the sterilization bag 23 made of glassine paper. […]
FIG. 7 is a table showing microbicidal activity determined from each of the survival curves S10, S100, S200, S600a, and S600b that are shown in FIG. 6. […] A D value [s] is a time which is calculated from a survival curve and at which the number of living microorganisms reaches 1/10. […]

[5] = system: spore solution (Bacillus subtilis) on pig skin; assay: sixth sterilization test, contaminated pig skin model, CFU assay; assay type: cell-based; settings: peroxynitric acid solution 100 mM, approximately 0.3 L container, Bacillus subtilis spores
Source text: Subsequently, the following description will discuss, with reference to FIG. 8, a result of a sterilization test using the sterilization device 1 that generates peroxynitric acid gas by a nebulizer method. In the sterilization test shown in FIG. 8, with the aim of application to biological disinfection, a contaminated pig skin model was sterilized by the nebulizer method.
FIG. 8 is a graph showing a result of a sixth sterilization test using a contaminated pig skin model. A 10^6 CFU spore solution (Bacillus subtilis) was applied to pig skin that had been shaved, cleaned, and subjected to sterilization treatment in advance, and the pig skin was dried so as to be a contaminated model. Such a contaminated pig skin model was regarded as the sterilization target 22 and housed in the sterilization container 21 having a capacity of approximately 0.3 L. In so doing, a surface of the contaminated pig skin model was made perpendicular to a direction in which a gas containing the peroxynitric acid gas and the peroxynitric acid mist flowed. A molar concentration of the peroxynitric acid solution to be placed in the second container 12 was set to 100 mM. After the sterilization test, a stomachere was used to collect bacteria on not only a front surface but also a back surface of the contaminated pig skin model, and the CFU assay was carried out.

[6] = half-time of peroxynitric acid solution versus temperature; assay type: physicochemical; settings: pH 2.9
Procedure: FIG. 10 is a graph showing half-time of a peroxynitric acid solution. As shown in the graph, the peroxynitric acid solution that has a lower temperature (which may be ambient temperature) has a longer half-time. For example, the peroxynitric acid solution that has pH of 2.9 has a half-time of 132 minutes at 2° C. of the temperature of the peroxynitric acid solution, has a half-time of 26 minutes at 10° C. of the temperature of the peroxynitric acid solution, has a half-time of 7.8 minutes at 20° C. of the temperature of the peroxynitric acid solution, has a half-time of 2 minutes at 30° C. of the temperature of the peroxynitric acid solution, and has a half-time of 0.6 minutes at 40° C. of the temperature of the peroxynitric acid solution. The half-time of the peroxynitric acid solution thus depends on temperature.

[7] = 1 atmospheric pressure, cited from earlier work
[8] = cited from earlier work; remark: listed apart in the source
[9] = peroxynitric acid solution 10 mM
[10] = peroxynitric acid solution 600 mM

Molecule: O=S(=O)(O)O [Sulfuric acid, sulfuric acid]
- vapor pressure ([1]; 25° C.): 0.0067 Pa

Molecule: peroxynitric acid [peroxynitric acid solution]
- time in which the BI was sterilized (living microorganisms equal to or lower than detection limit) [2, 9]: 3 min
- time in which the BI was sterilized (living microorganisms equal to or lower than detection limit) [2, 10]: 1 min
- time in which the BI was sterilized (on-off test) [3, 9]: 10 min
- time in which the BI was sterilized (on-off test) [3, 10]: 1 min
- microbicidal activity from survival curves ([4]; 10, 100, 200 and 600 mM, approximately 0.3 L container, 10^5 CFU spores, CFU assay): higher molar concentration achieves higher microbicidal activity
- microbicidal activity 1/D (reciprocal of D value) ([4]; calculated from survival curves S10, S100, S200, S600a, S600b): proportional to the molar concentration
- time in which the contaminated pig skin model was sterilized [5]: 3 min
- half-time ([6]; 2° C.): 132 min
- half-time ([6]; 10° C.): 26 min
- half-time ([6]; 20° C.): 7.8 min
- half-time ([6]; 30° C.): 2 min
- half-time ([6]; 40° C.): 0.6 min
- half-time ([7]; 4.55° C. (277.7 K)): 97 s
- half-time ([7]; 24.85° C. (298 K)): 12 s

Molecule: O=[N+]([O-])O [Nitric acid, nitric acid]
- pKa [8]: approximately −1.4
- vapor pressure ([1]; 20° C.): 6.4 kPa

Molecule: O=P(O)(O)O [phosphoric acid]
- vapor pressure ([1]; 20° C.): 4 Pa
